From article PMC7503308, “A Novel Urease Inhibitor of Ruminal Microbiota Screened through Molecular Docking” (International Journal of Molecular Sciences, 2020)
“Also recorded” adds a separate entry of the source.

Experiments:
Caco-2 cells = assay: CCK8 colorimetric cytotoxicity assay; format: cell-based; conditions: concentration below 100 μM, 24 h, p > 0.05
Protocol: A standard CCK8 colorimetric assay was employed for the evaluation of cytotoxic activity of compound 6238-0047 using 96-well flat bottomed microplates. Dulbecco’s Modified Eagle Medium (GIBCO) with 10% FBS (fetal bovine serum, FBS, Gibco) and 1% NEAA was used for the culturing of Caco-2 cells (ATCC, Manassas, VA, USA), and the medium was supplemented with 100 μg/mL of streptomycin and 100 IU/mL of penicillin. The medium was kept in 5% CO2 and incubated at 37 °C. The exponentially grown cells were harvested, counted using a hemocytometer and diluted with the medium. The cell culture was diluted to a density of 1 × 10^5 cells/mL and transferred into a 96-well plate with 135 μL or […]. The medium was incubated for 24 h for cell attachment. Following this, 15 μL of compounds with different final concentrations of 1, 10, 25, 50, and 100 μM in the experimental group and fresh medium as a control group, were added to a plate with five replicates for each. After 24 h of incubation at 37 °C and kept in 5% CO2, 15 μL of CCK8 was added to each well and after 2 h the absorbance was measured at 450 nm using a microplate reader. The formula for calculating the relative cell viability was as follows:Relative cell viability (%) = absorbance of experimental group/absorbance of control group × 100%

ruminal microbial urease = assay: Kinetic characterization of urease inhibition (nonlinear Michaelis-Menten fitting); format: biochemical, rumen bacteria of Chinese Holstein dairy cows
Protocol: Rumen fluid samples were collected from five Chinese Holstein dairy cows with permanent rumen fistula 3 h after feeding a total mixed ration in the morning. All the operations were conducted in accordance with the protocol approved by the Animal Care and Use Committee for Livestock of the Institute of Animal Sciences, Chinese Academy of Agricultural Sciences (Permit Number: IAS2019-14, Permit Date: 22-03-2019). All rumen fluid samples were filtered by a six layer sterilized medical gauze and mixed in a sterilized beaker before being evenly distributed into different 50 mL tubes and stored in liquid nitrogen. The deforested samples were centrifuged at 12,000× g for 10 min at 4 °C, then the supernatant was removed from the tube. The remaining sediments were resuspended in a HEPES buffer solution (pH 7.5, 50 mM) and then centrifuged at 12,000× g for 10 min at 4 °C. The supernatant was discarded and the remaining rumen bacteria were collected and stored at −80 °C for later urease extraction. All the sample handing processes were conducted on an ice bath. Before each urease inhibition assay, 2 g of rumen bacteria were taken from the fridge and resuspended in a HEPES buffer followed by lysis through a high-pressure cell press JG-1A (Ningbo Scientz Biotechnology Co., Ltd., Ningbo, China). The hollow cylindrical sample loading element was placed in −80 °C for 10 min before the high-pressure lysis at 22,000 psi. […] The kinetic of the compound was determined by varying the concentration of urea in the presence of different compound 6238-0047 concentrations of 0.25 and 0.5 mM in the assay mixture. […] Maximal initial velocities were determined from the initial linear portion of the absorbance up to 10 min after the addition of the enzyme. Kinetic parameters Km and Vmax were calculated by the nonlinear fitting of different substrate concentrations against the velocities of the reaction at each different concentrations of compound 6238-0047 using the GraphPad Prism software as mentioned before.

Compound: COc1ccc(-c2ccc(CCC(=O)O)n2NC(N)=O)cc1 [6238-0047, 3-[1-[(aminocarbonyl)amino]-5-(4-methoxyphenyl)-1H-pyrrol-2-yl] propanoic acid]
- Relative cell viability of Caco-2 cell culture (Caco-2 cells): no significant adverse effect; also recorded: no significant influence; also recorded: no cytotoxic effect
- Vmax (ruminal microbial urease; 0.25 mM of compound): 12.58 µM/min
- Vmax (ruminal microbial urease; 0.5 mM of compound): 9.67 µM/min
- Inhibition mode (ruminal microbial urease; from change of Km, Vmax and Vmax/Km): mixed type inhibitor
